Assay [1] has as its system HCT116 (colon) cancer cells. The experiment in a line: In vitro cytotoxic activity MTT assay, HCT116. The assay is classed as cell-based. Particulars: Homo sapiens, HCT-116, cells exposed for 96 hours, read-out: IC50, 50% inhibition of cell proliferation. The method, then: (§1) Compounds 1-12 were screened for their in vitro cytotoxic activity utilizing a 3-(4,5-dimethyl-thiazol-2-yl)-2,5-diphenyltetrazolium bromide (MTT) assay against selected cancer human cell lines consisting of PC3 (prostate), HCT116 (colon), A375 (melanoma), H1299 (lung), MIAPaCa-2 (pancreas), HL60 (leukemia), MCF7 (breast), MDA-MB-231 (breast) (T. Mosmann, J. Immmol. Meth., 1983, 65, 55-63). The cells were cultured at 37° C. in RMPI1640 medium supplemented with 10% fetal bovine serum, 50 IU/mL penicillin, and 50 μg/mL streptomycin in a 5% CO2 incubator. All cells were sub-cultured 3 times/week by trypsinisation. Viable cells were seeded and allowed to adhere for 12 h before a test drug was added in 96-well plates at an initial density of 1.0×10^5 cells/mL. Tumour cell lines were separately exposed to various concentrations of the tested compounds followed by incubation at a temperature of 37° C. during 96 h inside a medium of fresh RMPI 1640. Cells were subsequently incubated at 37° C. using MTT at 0.5 mg/mL during 4 h. After removal of supernatant, formazan crystals were dissolved in isopropanol and the optical density was measured at 570 nm. CX-4945 was used as a positive control.

For assay [2], the system named is HL60 (leukemia) cancer cells. The assay can be described thus: In vitro cytotoxic activity MTT assay, HL60. Type of assay: cell-based. Particulars: Homo sapiens, HL-60, cells exposed for 96 hours, read-out: IC50, 50% inhibition of cell proliferation. How it is done:
as §1

Assay [3] relates to MCF7 (breast) cancer cells. The assay can be described thus: In vitro cytotoxic activity MTT assay, MCF7. Type of assay: cell-based. The conditions noted are these: Homo sapiens, cells exposed for 96 hours, read-out: IC50, 50% inhibition of cell proliferation. How it is done:
as §1

Assay [4] concerns A375 (melanoma) cancer cells. The experiment in a line: In vitro cytotoxic activity MTT assay, A375. Type of assay: cell-based. Particulars: Homo sapiens, A-375, cells exposed for 96 hours, read-out: IC50, 50% inhibition of cell proliferation. How it is done: as §1
Assay [5] concerns MIAPaCa-2 (pancreas) cancer cells. The experiment in a line: In vitro cytotoxic activity MTT assay, MIAPaCa-2. The assay is classed as cell-based. The conditions noted are these: Homo sapiens, MIA PaCa-2, cells exposed for 96 hours, read-out: IC50, 50% inhibition of cell proliferation. How it is done: as §1
In assay [6] the target is T1, recombinant human CK2 (RRββ-holoenzyme) (Homo sapiens, UniProt P68400).
T1 construct: purchased Millipore
The assay can be described thus: CK2 Kinase Assay (33P-ATP, substrate peptide RRRDDDSDDD). The assay is classed as biochemical. The conditions noted are these: final ATP concentration 15 μM, 10 min at 30° C.; read-out: protein kinase CK2 IC50. How it is done:
CK2 Kinase Assay was conducted using the protocol as described in Pierre F. et al; J. Med. Chem. 2011, 54, 635-654. The tested compounds in aqueous solution were added at a volume of 10 μL to a reaction mixture comprising 10 μL of assay dilution buffer (ADB; 20 mM MOPS, pH 7.2, 25 mM β-glycerol phosphate, 5 mM EGTA, 1 mM sodium orthovanadate, and 1 mM dithiothreitol), 10 μL of substrate peptide (RRRDDDSDDD, dissolved in ADB at a concentration of 1 mM), 10 μL of recombinant human CK2 (RRββ-holoenzyme, 25 ng dissolved in ADB; Millipore). Reactions were initiated by the addition of 10 μL of ATP solution (90% 75 mM MgCl2, 75 μM ATP (final ATP concentration:15 μM) dissolved in ADB; 10% [γ-33P] ATP (stock 1 mCi/100 μL; 3000 Ci/mmol (Perkin-Elmer) and maintained for 10 min at 30° C. The reactions were quenched with 100 μL of 0.75% phosphoric acid and then transferred to and filtered through a phosphor cellulose filter plate (Millipore). After washing each well five times with 0.75% phosphoric acid, the plate was dried under vacuum for 5 min and, following the addition of 15 μL of scintillation fluid to each well, the residual radioactivity was measured using a Wallac […]. The IC50 values were derived from eight concentrations of test inhibitors.

Assay [7] has as its system H1299 (lung) cancer cells. The assay can be described thus: In vitro cytotoxic activity MTT assay, H1299. The assay is classed as cell-based. Particulars: Homo sapiens, NCI-H1299, cells exposed for 96 hours, read-out: IC50, 50% inhibition of cell proliferation. How it is done: as §1
The subject of assay [8] is PC3 (prostate) cancer cells. The assay can be described thus: In vitro cytotoxic activity MTT assay, PC3. The conditions noted are these: Homo sapiens, Prostate cell, cells exposed for 96 hours, read-out: IC50, 50% inhibition of cell proliferation. The assay is classed as cell-based. The method, then: as §1
Assay [9] has as its system MDA-MB-231 (breast) cancer cells. The assay can be described thus: In vitro cytotoxic activity MTT assay, MDA-MB-231. Particulars: Homo sapiens, cells exposed for 96 hours, read-out: IC50, 50% inhibition of cell proliferation. Type of assay: cell-based. The method, then: as §1

Molecules are shown by their SMILES.

T1 sequence (P68400 whole entry): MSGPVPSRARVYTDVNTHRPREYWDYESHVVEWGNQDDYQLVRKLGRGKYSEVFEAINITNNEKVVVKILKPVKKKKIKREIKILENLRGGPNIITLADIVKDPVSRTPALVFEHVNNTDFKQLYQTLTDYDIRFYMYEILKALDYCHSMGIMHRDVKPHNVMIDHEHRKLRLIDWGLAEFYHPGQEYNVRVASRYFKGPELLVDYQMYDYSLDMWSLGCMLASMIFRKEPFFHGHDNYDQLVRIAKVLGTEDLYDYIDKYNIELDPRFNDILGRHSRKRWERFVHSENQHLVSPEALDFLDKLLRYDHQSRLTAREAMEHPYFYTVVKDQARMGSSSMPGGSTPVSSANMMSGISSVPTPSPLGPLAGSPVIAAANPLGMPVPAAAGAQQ
T1 sequence (P67870 whole entry partner): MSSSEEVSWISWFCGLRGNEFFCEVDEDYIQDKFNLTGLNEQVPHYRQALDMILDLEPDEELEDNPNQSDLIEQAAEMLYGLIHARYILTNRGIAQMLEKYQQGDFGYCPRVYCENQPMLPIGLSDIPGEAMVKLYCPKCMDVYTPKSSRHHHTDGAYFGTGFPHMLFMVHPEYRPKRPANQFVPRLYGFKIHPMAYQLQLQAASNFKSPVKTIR

With `Clc1cccc(Nc2nc3c(nc4ccncn43)c3cnccc23)c1` [Compound 1, N-(3-chlorophenyl)pyrimido[6′,1′:2,3]imidazo[4,5-c][2,6]naphthyridin-5-amine], the IC50 came out at 1.2 µM in assay [1]; 3.4 µM in assay [2]; 5.1 µM in [3]; 2.8 µM in assay [4]; 0.9 µM in [5]; 0.012 µM in assay [6]. Also, the IC50 was determined as 2.1 µM in assay [7], 1.3 µM in [8] and 3.9 µM in [9].

These data come from patent publication US12006317B1, “5-substituted aminopyrimido [6′,1′:2,3] imidazo [4,5-c] [2,6] naphthyridine compounds as CK2 inhibitors” (KING FAISAL UNIVERSITY, priority 2023, dated 2024).
